# Reference: US9581587B2, “Sperm staining and sorting methods” (INGURAN, LLC, priority 2011, dated 2017)
# Assays:
# [1] = system: sperm; experiment: Split quality, split enhancing dyes at various concentrations and incubation times (Example 10); assay type: cell-based, bulls; conditions: for split enhancing effect compared to control: 15, 45, 125 μM, 30-75 minutes, averaged over 8 bulls; for peak to valley ratio, Average 8 bulls: 25 μM yellow food dye No. 6
# Description: (§1) Eight bulls were collected, including 4 Jersey bulls, 3 Holstein bulls and one mixed dairy-breed. The ejaculates were collected at concentrations ranging from 1700×10^6 sperm/ml to 1100×10^6 sperm/ml and all had progressive motility of a least 60%.
# (§2) Sperm from each bull was extended to 160 million per ml with a first buffer, (TALP described in table 1 at a pH 7.4) and stained with 64 μM (164/2 mL) Hoechst 33342 at 34° C. Additionally, Phenol Red, Red Food Dye No. 2, Red Food Dye No. 3, and Red Food Dye No. 4, were each tested as split enhancing dyes in the first buffer at concentrations of 15 μM, 45 μM and 125 μM. For each bull, each concentration of each dye was incubated for periods of 30 minutes, 45 minutes, 60 minutes, and 75 minutes were utilized before a second buffer with an additional dye was applied.
# Each sample was then extended in an equal volume of a second buffer which comprised a 5.5 pH modified TALP having 25 μM yellow food dye No. 6 (acting as a dead quenching dye) in addition to the split enhancing dye provided in the first buffer. The second buffer was applied to every sample at 30 minutes, 45 minutes, 60 minutes, and 75 minutes. A control was additionally taken without any split enhancing dye for every bull at every time interval.
# (§3) Sorting was performed on a MoFlo SX (Beckman Coulter, USA) in substantially the same manner described in Example 5. After calibration, screen shots of sorting histograms were taken and split quality was measured by peak to valley ratios in the same way described in Example 5 with reference to FIG. 4 and the resulting data, averaged over all 8 bulls, is found in Tables 18-21. Additionally, screen shots of bivariate plots were taken to measure the added dead quenching capacity of the mixed dead quenching and split enhancing dyes.
# [2] = system: membrane compromised sperm; experiment: Added dead quenching capacity from bivariate plots (Example 10, FIG. 8); assay type: cell-based, bulls; conditions: with 25 μM yellow food dye No. 6, red food dye No. 4 at highest tested concentration
# Description: as §1
# as §2, with “applied. […]” for “applied.”
# as §3, with “Additionally, screen shots of bivariate plots were taken to measure the added dead quenching capacity of the mixed dead quenching and split enhancing dyes.” left out
# [3] = system: sperm; experiment: Split quality, red food dye No. 3 as added split enhancing dye (Example 9); assay type: cell-based, bull; conditions: with yellow food dye No. 6 or red food dye No. 40 as dead quenching dye
# Description: A single bull was collected for the Example 9 in the same way described in Example 5. […] The second buffer was additionally treated with concentrations of 25, 50, 100, 150, 300, or 600 μM of red food dye No. 3, as indicated in Table 6. Sorting was performed on a MoFlo SX (Beckman Coulter, USA) in substantially the same manner described in Example 6. After calibration, screen shots of sorting histograms were taken and the split quality was measured in terms of peak to valley ratios in the same way described in Example 5 with reference to FIG. 4 and the resulting data is found in Table 17.
# [4] = system: membrane compromised sperm; experiment: Dead gate intensity divided by live gate intensity, flow cytometer (Example 5); assay type: cell-based
# Description: (§4) A single Jersey bull was collected at an initial sperm concentration 1900×10^6 sperm/ml in a volume of 5 ml. The progressive motility of the sperm was 65% with normal morphologies greater than 65%.
# (§5) The entire ejaculate of sperm was suspended in first staining buffer, specifically a 7.4 pH TALP described in TABLE 1, to a concentration of 160×10^6 sperm per mL (determined on nucleocounter) and divided into three aliquots of about 20 mL into 50 mL Falcon tubes and pre-warmed for 10 minutes at 34° C. The DNA selective fluorescent dye, Hoechst 33342, was added and samples were held at 34° C. for 60 minutes. 3 different Hoechst 33342 Stain Levels were used=12 μL, 14 μL and 16 μL per 2 mL (effective concentrations of 48 μM, 56 μM, 64 μM).
# (§6) Preparation of the second buffer including the dead quenching dye—A 2 L bag of TALP, described in TABLE 1, was adjusted to pH 5.60 using HCl and then sterile filtered. […] For each of the four dyes tested (R40-red food dye No. 40, Y5—yellow food dye No. 5, Y6—yellow food dye No. 6 and PR—phenol red), an appropriate number of milligrams of each powder was placed in a Erlenmeyer Flask and then an exact amount of TALP pH 5.60 was added to create a 250 μM concentration of the dye. The result was a working TALP stock for each dye with a 100% (125 μM) relative amount of dye 50% relative (62.5 μM) and 20% relative (25 μM) solutions were made by dilution of 100% by TALP pH 5.60.
# (§7) Single tubes of stained sperm at each of the three Hoechst 33342 concentrations were treated with TALP pH 5.60 which had no dead quenching dye present. Single tubes using Vitamin B12 (red colored chemical) with stock concentration of 15 μM (12% relative) were tested.
# (§8) After this “bulk” staining for 60 minutes, 1 mL aliquots of stained sperm were combined with 1 mL aliquots of the second buffer including the dead quenching dyes. Samples sat for approximately 30 minutes at room temperature before being analyzed on a MoFlo SX (Beckman Coulter, USA) sperm sorting flow cytometer. Event rates were held as close to 13,000 as possible at the point of data acquisition.
# (§9) The total number of individual treatments was 42 tubes, each containing 2 mL of stained sample. The alignment of the sorter was established using nuclei and confirmed with live sample from the 50% Red 40 series. Once good alignment was established, each tube was placed on the sorter long enough to establish a stabile dead gate population (about 30 seconds) and then a screenshot was taken and saved as a .jpeg image. This approach of rapidly documenting each sample is used to assure the most consistent alignment between all samples. Realignment of sorter will not cause differences in the intensities of live and dead gate populations but will cause differences in split quality.
# (§10) FIG. 4 illustrates an example histogram. The ratio of dead gate intensity divided by live gate intensity is created by dividing the distance “A” by the distance “B” shown as a percentage. Lower values mean higher levels of quenching. The ratio of peak height divided by valley height is created by dividing the distance “C” by the distance “D”. A value of 1.00 means “no split” while higher values mean “better splits”.
# [5] = system: sperm; experiment: Split quality, height of peak divided by height of valley (Example 5); assay type: cell-based, Jersey bull; conditions: Hoechst 16 μL/2 mL
# Description: as §4, §5, §6, §7, §8, §9, §10
# [6] = system: membrane compromised sperm; experiment: Dead gate intensity, yellow 5 and phenol red at higher concentrations (Example 6); assay type: cell-based, Jersey bull; conditions: for Intensity: Hoechst 12 μL/2 mL
# Description: (§11) A single Jersey bull was collected at an initial sperm concentration 1810×10^6 sperm/ml in a volume of 3.9 ml. The progressive motility of the sperm was 65% with normal morphologies greater than 50%.
# (§12) Sperm were suspended at 320 million per mL in 30 mL a first buffer, (TALP described in table 1 at a pH 7.4) with 12 μL of Hoechst 33342 per 2 mL (48 μM) of stain and incubated for 1 hour at 34° C. Stained sperm was then placed as 1 mL aliquots in sample tubes and a 1 mL volume of the appropriate TALP was added. The same second buffer was used as example 1, namely a modified 5.60 pH TALP.
# (§13) Each of the stained samples was sorted on a MoFlo SX (Beckman Coulter, USA) as described in Example 6. Screen shots were taken and the dead gate intensity and the split quality were measured in the same way described in Example 1 and recorded in TABLE 14.
# [7] = system: sperm; experiment: Split quality PV (Example 6); assay type: cell-based, Jersey bull; conditions: Hoechst 12 μL/2 mL, resulting pH 6.70
# Description: as §11, §12, §13
# [8] = system: sperm; conditions: as dead quenching dye; cited from earlier work
# [9] = split enhancing dye 125 μM, 30 Min
smiles,measurement,setting,value
"Cc1c(C(=O)O)c(O)cc2c1C(=O)c1c(O)c(C3O[C@H](CO)[C@@H](O)[C@H](O)[C@H]3O)c(O)c(O)c1C2=O (stereo in doubt) [Red 4, carmine]",split enhancing effect compared to control,[1],provides distinct improvements at all concentrations and at all times
same,dead quenching capacity in combination with dead quenching dye,[2],significant increase in quenching the dead subpopulation
O=S(=O)([O-])c1ccc2c(N=Nc3ccc(S(=O)(=O)[O-])c4ccccc34)c(O)c(S(=O)(=O)[O-])cc2c1.[Na+].[Na+].[Na+] [Red 2],split enhancing effect compared to control,[1],"did not provide a split enhancing, or noise reducing effect"
same,"peak to valley ratio, Average 8 bulls","[1]; split enhancing dye 45 μM, 30 Min",1.00
same,"peak to valley ratio, Average 8 bulls",[1]; [9],1.00
same,"peak to valley ratio, Average 8 bulls","[1]; split enhancing dye 125 μM, 45 Min",1.00
same,"peak to valley ratio, Average 8 bulls","[1]; split enhancing dye 125 μM, 60 Min",1.00
same,"peak to valley ratio, Average 8 bulls","[1]; split enhancing dye 125 μM, 75 Min",1.00
same,dead quenching capacity in combination with dead quenching dye,[2],strong dead quenching capacity
"O=C(O)c1ccccc1-c1c2cc(I)c(=O)c(I)c-2oc2c(I)c(O)c(I)cc12 [Red 3, 2-(6-Hydroxy-2,4,5,7-tetraiodo-3-oxo-xanthen-9-yl)benzoic acid]",effect of increasing concentration on split quality,[3],improved the split quality up to the concentration of 300 μM
same,split enhancing effect compared to control,[1],provided initial split enhancements at 15 μM and 45 μM
same,"peak to valley ratio, Average 8 bulls",[1]; [9],1.00
"O=C([O-])C1=NN(c2ccc(S(=O)(=O)[O-])cc2)C(=O)/C1=N/Nc1ccc(S(=O)(=O)[O-])cc1.[Na+].[Na+].[Na+] [Yellow 5, Trisodium (4E)-5-oxo-1-(4-sulfonatophenyl)-4-[(4-sulfonatophenyl)hydrazono]-3-pyrazolecarboxylate]",Dead Intensity,"[4]; dye 25 μM, Average over Hoechst levels",90%
same,Dead Intensity,"[4]; dye 25 μM, Hoechst 12 μL/2 mL",90%
same,Dead Intensity,"[4]; dye 25 μM, Hoechst 14 μL/2 mL",90%
same,Dead Intensity,"[4]; dye 25 μM, Hoechst 16 μL/2 mL",90%
same,Dead Intensity,"[4]; dye 62.5 μM, Average over Hoechst levels",74%
same,Dead Intensity,"[4]; dye 62.5 μM, Hoechst 12 μL/2 mL",74%
same,Dead Intensity,"[4]; dye 62.5 μM, Hoechst 14 μL/2 mL",77%
same,Dead Intensity,"[4]; dye 62.5 μM, Hoechst 16 μL/2 mL",70%
same,Dead Intensity,"[4]; dye 125 μM, Average over Hoechst levels",57%
same,Dead Intensity,"[4]; dye 125 μM, Hoechst 12 μL/2 mL",54%
same,Dead Intensity,"[4]; dye 125 μM, Hoechst 14 μL/2 mL",63%
same,Dead Intensity,"[4]; dye 125 μM, Hoechst 16 μL/2 mL",55%
same,ability to create a dead gate population (ordering of the four dyes),[4]; from dead and live intensity data of Table 13,better quenching properties than phenol red
same,Height of Peak/Height of Valley,[5]; dye 25 μM,1.00
same,Height of Peak/Height of Valley,[5]; dye 62.5 μM,1.00
same,amount of dye needed for a similar dead gate intensity ratio as red food dye No. 40 and yellow food dye No. 6,[6],about five
same,Intensity,"[6]; dye 125 μM, resulting pH 6.70",63%
same,Intensity,"[6]; dye 250 μM, resulting pH 6.70",48%
same,Intensity,"[6]; dye 500 μM, resulting pH 6.70",43%
same,Intensity,"[6]; dye 750 μM, resulting pH 6.70",<30%
same,Intensity,"[6]; dye 875 μM, resulting pH 6.70",<30%
same,Intensity,"[6]; dye 1250 μM, second buffer pH 5.60, resulting pH 6.70",<30%
same,PV,[7]; dye 125 μM,1.00
same,PV,[7]; dye 250 μM,1.00
same,PV,[7]; dye 500 μM,1.00
same,PV,[7]; dye 750 μM,1.00
same,PV,[7]; dye 875 μM,1.00
same,PV,[7]; dye 1250 μM,1.00
CC[N+](C)(CC)CCC[n+]1c(-c2ccccc2)c2cc(N)ccc2c2ccc(N)cc21.[I-].[I-] [propidium iodine],toxicity to sperm,[8],toxic to sperm
